Measurements published in patent publication US8563553B2, “Compounds and compositions as protein kinase inhibitors” (Novartis AG, priority 2009, dated 2013).

Molecular target: b-Raf(V600E) (Homo sapiens (Human), UniProt P15056, V600E)
Assay: Raf/Mek Amplified Luminescence Proximity Homogeneous Assay (Alpha Screen)
Type: biochemical
Settings: b-Raf(V600E) approximately 4 pM; biotinylated Mek, kinase dead approximately 10 nM; ATP 10 μM; pre-incubation 60 minutes; reaction 3 hours at room temperature; read-out: mut-B-RAF IC50
Procedure: Raf/Mek Amplified Luminescence Proximity Homogeneous Assay
Assay buffer: 50 mM Tris, pH 7.5, 15 mM MgCl2, 0.01% Bovine Serum Albumin (BSA), 1 mM dithiothreitol (DTT) Stop buffer: 60 mM ethylenediaminetetraacetic acid (EDTA), 0.01% Tween® 20 Bead buffer: 50 mM Tris, pH 7.5, 0.01% Tween® 20 […]
biotinylated Mek, kinase dead
Alpha Screen detection kit (available from PerkinElmer™, #6760617R)
Anti phospho-MEK1/2 (available from Cell Signaling Technology, Inc. #9121) 384 well assay plates (White Greiner® plates, #781207) […]
biotinylated Mek, Kinase dead approximately 10 nM
Pre-incubation time with compounds 60 minutes at room temperature
Reaction time 1 or 3 hours at room temperature
Raf and biotinylated Mek, kinase dead, were combined at 2× final concentrations in assay buffer (50 mM Tris, pH 7.5, 15 mM MgCl2, 0.01% BSA and 1 mM DTT) and dispensed 10 μl per well in assay plates (Greiner white 384 well assay plates #781207) containing 0.5 μl of 40× of a raf kinase inhibitor test compound diluted in 100% DMSO. The plate was incubated for 60 minutes at room temperature.
The Raf kinase activity reaction was started by the addition of 10 μL per well of 2×ATP diluted in assay buffer. […] Phosphorylated product was measured using a rabbit anti-p-MEK (Cell Signaling, #9121) antibody and the Alpha Screen IgG (ProteinA) detection Kit (PerkinElmer #6760617R), by the addition of 30 μL to the well of a mixture of the antibody (1:2000 dilution) and detection beads (1:2000 dilution of both beads) in bead buffer (50 mM Tris, pH 7.5, 0.01% Tween20). The additions were carried out under dark conditions to protect the detection beads from light. A lid was placed on top of the plate and incubated for 1 hour at room temperature, then the luminescence was read on a PerkinElmer Envision instrument. The concentration of each compound for 50% inhibition (IC50) was calculated by non-linear regression using XL Fit data analysis software.

Sequence of b-Raf(V600E) (P15056 whole entry V600E): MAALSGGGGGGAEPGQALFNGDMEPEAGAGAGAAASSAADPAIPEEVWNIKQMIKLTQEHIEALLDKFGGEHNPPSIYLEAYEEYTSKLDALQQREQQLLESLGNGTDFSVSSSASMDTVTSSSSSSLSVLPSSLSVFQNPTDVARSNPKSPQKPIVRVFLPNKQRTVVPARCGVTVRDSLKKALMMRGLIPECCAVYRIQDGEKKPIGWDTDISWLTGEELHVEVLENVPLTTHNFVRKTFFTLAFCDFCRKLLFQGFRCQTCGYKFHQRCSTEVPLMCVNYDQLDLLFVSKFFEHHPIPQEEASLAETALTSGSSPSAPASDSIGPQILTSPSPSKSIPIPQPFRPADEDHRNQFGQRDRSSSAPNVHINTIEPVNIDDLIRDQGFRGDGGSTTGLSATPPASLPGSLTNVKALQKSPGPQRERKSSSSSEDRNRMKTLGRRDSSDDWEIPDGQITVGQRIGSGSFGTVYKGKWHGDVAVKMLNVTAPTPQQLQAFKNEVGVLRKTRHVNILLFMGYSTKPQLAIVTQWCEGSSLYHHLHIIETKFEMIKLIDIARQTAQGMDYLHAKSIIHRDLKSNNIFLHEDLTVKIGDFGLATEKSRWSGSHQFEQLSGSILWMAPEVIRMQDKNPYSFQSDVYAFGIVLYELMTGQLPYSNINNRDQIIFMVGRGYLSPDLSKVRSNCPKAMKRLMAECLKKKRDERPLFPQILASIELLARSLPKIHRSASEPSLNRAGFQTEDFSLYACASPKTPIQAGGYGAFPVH

Row | SMILES | IC50
1 | CCCS(=O)(=O)Nc1cc(F)cc(-c2nc(C(C)(C)C)[nH]c2-c2ccnc(NC[C@H](C)NC(=O)OC)n2)c1Cl [Example 1AH] | 1 nM
2 | CCCS(=O)(=O)Nc1cc(F)cc(-c2nc(C3CC3)[nH]c2-c2ccnc(NCC)n2)c1Cl [Example 1AS, N-(2-Chloro-3-(2-cyclopropyl-5-(2-(ethylamino)pyrimidin-4-yl)-1H-imidazol-4-yl)-5-fluorophenyl)propane-1-sulfonamide] | 1 nM
3 | COC(=O)N[C@@H](C)CNc1nccc(-c2[nH]c(C3CC3)nc2-c2cc(F)cc(NS(=O)(=O)C3CC3)c2Cl)n1 [Example 1AE, (S)-Methyl 1-(4-(4-(2-chloro-3-(cyclopropanesulfonamido)-5-fluorophenyl)-2-cyclopropyl-1H-imidazol-5-yl)pyrimidin-2-ylamino)propan-2-ylcarbamate] | 0.3 nM
4 | COC(=O)N[C@@H](C)CNc1nccc(-c2nc(C3(C)CC3)[nH]c2-c2cc(C)cc(NS(C)(=O)=O)c2F)n1 [Example 1AM, (S)-Methyl 1-(4-(5-(2-fluoro-5-methyl-3-(methylsulfonamido)phenyl)-2-(1-methylcyclopropyl)-1H-imidazol-4-yl)pyrimidin-2-ylamino)propan-2-ylcarbamate] | 1 nM
5 | COC(=O)N[C@@H](C)CNc1nccc(-c2nc(C3CC3)[nH]c2-c2cc(Cl)cc(NS(=O)(=O)CC3CC3)c2F)n1 [Example 1AC, (S)-Methyl 1-(4-(5-(5-chloro-3-(cyclopropylmethylsulfonamido)-2-fluorophenyl)-2-cyclopropyl-1H-imidazol-4-yl)pyrimidin-2-ylamino)propan-2-ylcarbamate] | 0.26 nM
6 | CCCNc1nccc(-c2[nH]c(C3CC3)nc2-c2cc(F)cc(NS(=O)(=O)CCC)c2Cl)n1 [Example 1AN, N-(2-Chloro-3-(2-cyclopropyl-5-(2-(propylamino)pyrimidin-4-yl)-1H-imidazol-4-yl)-5-fluorophenyl)propane-1-sulfonamide] | 0.39 nM
7 | COC(=O)N[C@@H](C)CNc1nccc(-c2nc(C3(C)CC3)[nH]c2-c2cccc(NS(C)(=O)=O)c2Cl)n1 [Example 1AO, (S)-Methyl 1-(4-(5-(2-chloro-3-(methylsulfonamido)phenyl)-2-(1-methylcyclopropyl)-1H-imidazol-4-yl)pyrimidin-2-ylamino)propan-2-ylcarbamate] | 1 nM
8 | CC(C)(C)c1nc(-c2cc(Cl)cc(NS(C)(=O)=O)c2F)c(-c2ccnc(N)n2)[nH]1 [Example 1BD, N-(3-(5-(2-Aminopyrimidin-4-yl)-2-tert-butyl-1H-imidazol-4-yl)-5-chloro-2-fluorophenyl)methanesulfonamide] | 3 nM
9 | COC(=O)N[C@@H](C)CNc1nccc(-c2[nH]c(C(C)(C)C)nc2-c2cc(F)cc(NS(C)(=O)=O)c2Cl)n1 [Example 1AG, (S)-Methyl 1-(4-(2-tert-butyl-4-(2-chloro-5-fluoro-3-(methylsulfonamido)phenyl)-1H-imidazol-5-yl)pyrimidin-2-ylamino)propan-2-ylcarbamate] | 1 nM
10 | CCCS(=O)(=O)Nc1cc(F)cc(-c2nc(C3CC3)[nH]c2-c2ccnc(NC(C)C)n2)c1Cl [Example 1AU, N-(2-Chloro-3-(2-cyclopropyl-5-(2-(isopropylamino)pyrimidin-4-yl)-1H-imidazol-4-yl)-5-fluorophenyl)propane-1-sulfonamide] | 5 nM
11 | CC(C)(C)c1nc(-c2cccc(NS(C)(=O)=O)c2Cl)c(-c2ccnc(N)n2)[nH]1 [Example 1BL, N-(3-(5-(2-Aminopyrimidin-4-yl)-2-tert-butyl-1H-imidazol-4-yl)-2-chlorophenyl)methanesulfonamide] | 55 nM
12 | CCS(=O)(=O)Nc1cc(F)cc(-c2nc(C3CC3)[nH]c2-c2ccnc(NC[C@H](C)NC(=O)OC)n2)c1Cl [Example 1AD, (S)-Methyl 1-(4-(4-(2-chloro-3-(ethylsulfonamido)-5-fluorophenyl)-2-cyclopropyl-1H-imidazol-5-yl)pyrimidin-2-ylamino)propan-2-ylcarbamate] | 0.43 nM
13 | CC(C)Nc1nccc(-c2[nH]c(C3CC3)nc2-c2cc(F)cc(NS(C)(=O)=O)c2Cl)n1 [Example 1AT, N-(2-Chloro-3-(2-cyclopropyl-5-(2-(isopropylamino)pyrimidin-4-yl)-1H-imidazol-4-yl)-5-fluorophenyl)methanesulfonamide] | 25 nM

Results, then the molecule that gave them:

Row | IC50 | SMILES
14 | 0.5 nM | CCC(C)S(=O)(=O)Nc1cc(Cl)cc(-c2nc(C(C)(C)C)[nH]c2-c2ccnc(NC[C@H](C)NC(=O)OC)n2)c1 (stereo partly drawn) [Example 1H, Methyl (2S)-1-(4-(2-tert-butyl-4-(3-chloro-5-(1-methylpropylsulfonamido)phenyl)-1H-imidazol-5-yl)pyrimidin-2-ylamino)propan-2-ylcarbamate]
15 | 0.1 nM | CCCS(=O)(=O)Nc1cc(Cl)cc(-c2nc(C(C)(C)C)[nH]c2-c2ccnc(NC[C@H](C)NC(=O)OC)n2)c1 [Example 1E, (S)-methyl 1-(4-(2-tert-butyl-4-(3-chloro-5-(propylsulfonamido)phenyl)-1H-imidazol-5-yl)pyrimidin-2-ylamino)propan-2-ylcarbamate]
16 | 1.35 nM | COC(=O)N[C@@H](C)CNc1nccc(-c2[nH]c(C(C)(C)C)nc2-c2cc(Cl)cc(NS(=O)(=O)C(C)C)c2)n1 [Example 1J, (S)-Methyl 1-(4-(2-tert-butyl-4-(3-chloro-5-(1-methylethylsulfonamido)phenyl)-1H-imidazol-5-yl)pyrimidin-2-ylamino)propan-2-ylcarbamate]
17 | 0.25 nM | COC(=O)N[C@@H](C)CNc1nccc(-c2[nH]c(C3CC3)nc2-c2cc(C)cc(NS(=O)(=O)CC(F)(F)F)c2F)n1 [Example 1BO, (S)-Methyl 1-(4-(2-cyclopropyl-4-(2-fluoro-5-methyl-3-(2,2,2-trifluoroethylsulfonamido)phenyl)-1H-imidazol-5-yl)pyrimidin-2-ylamino)propan-2-ylcarbamate]
18 | 1 nM | Nc1nccc(-c2[nH]c(C3CC3)nc2-c2cccc(NS(=O)(=O)c3c(F)cccc3F)c2Cl)n1 [Example 2H, N-(3-(5-(2-aminopyrimidin-4-yl)-2-cyclopropyl-1H-imidazol-4-yl)-2-chlorophenyl)-2,6-difluorobenzenesulfonamide]
19 | 1 nM | O=S(=O)(Nc1cc(F)cc(-c2nc(C3CC3)[nH]c2-c2ccncn2)c1Cl)c1c(F)cccc1F [Example 2I, N-(2-Chloro-3-(2-cyclopropyl-5-(pyrimidin-4-yl)-1H-imidazol-4-yl)-5-fluorophenyl)-2,6-difluorobenzenesulfonamide]
20 | 1.08 nM | COC(=O)N[C@@H](C)CNc1nccc(-c2[nH]c(C(C)(C)C)nc2-c2cccc(NS(=O)(=O)CCC(F)(F)F)c2F)n1 [Example 4E, (S)-Methyl 1-(4-(2-tert-butyl-4-(2-fluoro-3-(3,3,3-trifluoropropylsulfonamido)phenyl)-1H-imidazol-5-yl)pyrimidin-2-ylamino)propan-2-ylcarbamate]
21 | 0.2 nM | CCCS(=O)(=O)Nc1cc(F)cc(-c2nc(C3CC3)[nH]c2-c2ccnc(N)n2)c1Cl [Example 1BS, N-(3-(5-(2-Aminopyrimidin-4-yl)-2-cyclopropyl-1H-imidazol-4-yl)-2-chloro-5-fluorophenyl)propane-1-sulfonamide]
22 | 0.26 nM | CC(C)(C)c1nc(-c2cc(F)cc(NS(=O)(=O)c3c(F)cccc3F)c2Cl)c(-c2ccnc(N)n2)[nH]1 [Example 1BP, N-(3-(5-(2-Aminopyrimidin-4-yl)-2-tert-butyl-1H-imidazol-4-yl)-2-chloro-5-fluorophenyl)-2,6-difluorobenzenesulfonamide]
23 | 0.2 nM | COC(=O)N[C@@H](C)CNc1nccc(-c2[nH]c(C3CC3)nc2-c2cc(F)cc(NS(C)(=O)=O)c2F)n1 [Example 1V, Methyl (2S)-1-(4-(2-cyclopropyl-4-(2,5-difluoro-3-(methylsulfonamido)phenyl)-1H-imidazol-5-yl)pyrimidin-2-ylamino)propan-2-ylcarbamate]
24 | 1 nM | CNc1nccc(-c2[nH]c(C3CC3)nc2-c2cc(F)cc(NS(=O)(=O)c3c(F)cccc3F)c2Cl)n1 [Example 1BV, N-(2-Chloro-3-(2-cyclopropyl-5-(2-(methylamino)pyrimidin-4-yl)-1H-imidazol-4-yl)-5-fluorophenyl)-2,6-difluorobenzenesulfonamide]
25 | 0.55 nM | COC(=O)N[C@@H](C)CNc1nccc(-c2[nH]c(C3CC3)nc2-c2cccc(NS(C)(=O)=O)c2F)n1 [Example 1U, (S)-Methyl 1-(4-(2-cyclopropyl-4-(2-fluoro-3-(methylsulfonamido)phenyl)-1H-imidazol-5-yl)pyrimidin-2-ylamino)propan-2-ylcarbamate]
26 | 4 nM | CCCS(=O)(=O)Nc1cc(F)cc(-c2nc(C3CC3)[nH]c2-c2ccncn2)c1Cl [Example 2K, N-(2-Chloro-3-(2-cyclopropyl-5-(pyrimidin-4-yl)-1H-imidazol-4-yl)-5-fluorophenyl)propane-1-sulfonamide]
